Patent publication US8987502B2, “Oleanolic acid amidate derivatives, preparation methods and uses thereof” (Hangzhou Bensheng Pharmaceutical Co., Ltd., priority 2011, dated 2015)
In brackets after ≈: the same amount, converted by molar mass.

What was measured:
[1] = test system: K562/adr; test: MTT leukemia cell proliferation inhibition, K562/adr; type: cell-based; conditions: Homo sapiens, 72 h; for inhibition at 16 µg/mL: 16 μg/mL compound, read-out: IR (inhibition rate); for IC50: MTT
Source text: (§1) Leukemia cell lines: leukemia cell lines: K562/adr (drug-resistant, chronic myeloid leukemia, CML), NB4 (acute promyelocytic leukemia, AML), Kasumi-1 (acute myeloid leukemia M2 type, AML-M2), Jurkat (acute lymphoblastic leukemia, ALL), all of which are donated by Cancer Research Institute of Zhejiang University, China; and H9 (acute lymphoblastic leukemia, ALL), which is purchased from China Center for Type Culture Collection (CCTCC).
(§2) Reagents: The standard sample of oleanolic acid (OA) is purchased from Hua Kang Pharmaceutical Raw Material Factory, Shifang City, Sichuan, China; and the amidated oleanolic acid derivatives are prepared according to the present invention.
(§3) Obtaining 6000 well-growing leukemia cells and inoculating them into wells of a 96-well cell culture plate. The culture medium is the 1640 cell culture medium containing 10% fetal bovine serum. After adding the amidated oleanolic acid derivatives of different concentrations and mixing uniformly, placing the plate in a carbon dioxide cell incubator (5% CO2) at 37° C. and incubated for 72 hours. Then the relative number of viable cells is determined by the MTT method. In this experiment, the cell proliferation inhibition rate in control group (not treated with any compound) is set as 0%.

[2] = test system: NB4; test: MTT leukemia cell proliferation inhibition, NB4; type: cell-based; conditions: Homo sapiens, NB-4
Source text: as §1, §2, §3

[3] = test system: Kasumi-1; test: MTT leukemia cell proliferation inhibition, Kasumi-1; type: cell-based; conditions: Homo sapiens
Source text: as §1, §2, §3

[4] = test system: H9; test: MTT leukemia cell proliferation inhibition, H9; type: cell-based, human; conditions: Homo sapiens
Source text: as §1, §2, §3

[5] = test system: Jurkat; test: MTT leukemia cell proliferation inhibition, Jurkat; type: cell-based; conditions: Homo sapiens, 72 h
Source text: as §1, §2, §3

[6] = test system: RPMI8226; test: MTT multiple myeloma cell proliferation inhibition, RPMI8226; type: cell-based; conditions: Homo sapiens, RPMI-8226
Experimental: Multiple myeloma cell lines: RPMI8226 (multiple myeloma), purchased from Fuxiang Bio-tech Co. Ltd., Shanghai, China.
as §3

[7] = test system: A549; test: MTT solid tumor cell proliferation inhibition, A549; type: cell-based, human; conditions: Homo sapiens; for inhibition at 16 µg/mL: A549, 16 μg/mL compound, 72 h, read-out: IR (inhibition rate); for IC50: A549, 72 h, MTT
Experimental: (§4) Human solid tumor cell lines: Hep-2 (laryngeal carcinoma), A549 (human lung cancer), CaES-17 (esophageal cancer cell), PC-3 (prostate cancer), CNE (nasopharyngeal carcinoma cell), and SK-OV-3 (ovarian cancer cell), all of which are purchased from China Center For Type Culture Collection; RKO (human colon adenocarcinoma cell), MGC 803 (human gastric cancer cell), MG63 (osteosarcoma) and U87 MG (malignant glioma cell), all of which are purchased from Fuxiang Bio-tech Co. Ltd., Shanghai, China; PANC-1 (pancreatic cancer), Hep G2 (human liver cancer cell), Becap37 (human breast cancer cell), and Hela (human cervical cancer cell), all of which are donated by Cancer Research Institute of Zhejiang University, China.
(§5) Obtaining 4000 well-growing human solid tumor cells and inoculating them into wells of a 96-well cell culture plate. The culture medium is DMEM High Glucose cell culture medium containing 10% fetal bovine serum. The plate is placed in a carbon dioxide cell incubator (5% CO2) at 37° C. for 24 hours for incubation. After being added with the amidated oleanolic acid derivatives of different concentrations and mixed uniformly, the plate is placed in a carbon dioxide cell incubator (5% CO2) at 37° C. for 72 hours for incubation. Then the relative number of the living cells is determined by the MTT method. In this experiment, the cell proliferation inhibition rate in control group (not treated with any compound) is set as 0%.

[8] = test system: PANC-1; test: MTT solid tumor cell proliferation inhibition, PANC-1; type: cell-based, human; conditions: Homo sapiens
Experimental: as §4, §5

[9] = test system: Becap37; test: MTT solid tumor cell proliferation inhibition, Becap37; type: cell-based; conditions: Homo sapiens
Experimental: as §4, §5

[10] = test system: MG 63; test: MTT solid tumor cell proliferation inhibition, MG 63; type: cell-based, human
Experimental: as §4, §5

[11] = test system: Hep G2; test: MTT solid tumor cell proliferation inhibition, Hep G2; type: cell-based; conditions: Homo sapiens, HepG2
Experimental: as §4, §5

[12] = test system: RKO; test: MTT solid tumor cell proliferation inhibition, RKO; type: cell-based; conditions: Homo sapiens, 72 h
Experimental: as §4, §5

[13] = test system: U87 MG; test: MTT solid tumor cell proliferation inhibition, U87 MG; type: cell-based, human; conditions: Homo sapiens, U-87 MG, U87 MG, 72 h
Experimental: as §4, §5

[14] = test system: Hela; test: MTT solid tumor cell proliferation inhibition, Hela; type: cell-based, human; conditions: Homo sapiens, Hela, 72 h
Experimental: as §4, §5

[15] = test system: CaES-17; test: MTT solid tumor cell proliferation inhibition, CaES-17; type: cell-based, human; conditions: Homo sapiens, CaEs17
Experimental: as §4, §5

[16] = test system: CNE; test: MTT solid tumor cell proliferation inhibition, CNE; type: cell-based, human; conditions: Homo sapiens, CNE, 72 h
Experimental: as §4, §5

[17] = test system: Hep-2; test: MTT solid tumor cell proliferation inhibition, Hep-2; type: cell-based, human; conditions: Homo sapiens
Experimental: as §4, §5

[18] = test system: MGC803; test: MTT solid tumor cell proliferation inhibition, MGC803; type: cell-based, human; conditions: Homo sapiens, MGC-803
Experimental: as §4, §5

[19] = test system: PC-3; test: MTT solid tumor cell proliferation inhibition, PC-3; type: cell-based, human; conditions: Homo sapiens
Experimental: as §4, §5

[20] = test system: SK-OV-3; test: MTT solid tumor cell proliferation inhibition, SK-OV-3; type: cell-based, human; conditions: Homo sapiens
Experimental: as §4, §5

[21] = 16 μg/mL compound, read-out: IR (inhibition rate)

CC1(C)CC[C@]2(NC(=O)c3cccs3)CC[C@]3(C)C(=CC[C@@H]4[C@@]5(C)CC[C@H](O)C(C)(C)[C@@H]5CC[C@]43C)[C@@H]2C1 [BS-OA-098]
inhibition at 16 µg/mL [1]: 81.9% | IC50 [1]: 7.83 µg/mL (≈ 14.6 µM) | inhibition at 16 µg/mL ([2]; NB4, 16 μg/mL compound, 72 h, read-out: IR (inhibition rate)): 96.3% | IC50 ([2]; NB4, 72 h, MTT): 8.22 µg/mL (≈ 15.3 µM) | inhibition at 16 µg/mL ([3]; Kasumi-1, 16 μg/mL compound, 72 h, read-out: IR (inhibition rate)): 35.7% | IC50 ([3]; Kasumi-1, 72 h, MTT): > 16 µg/mL | inhibition at 16 µg/mL ([4]; H9, 16 μg/mL compound, 72 h, read-out: IR (inhibition rate)): 62.4% | IC50 ([4]; H9, 72 h, MTT): 12.5 µg/mL (≈ 23.2 µM) | inhibition at 16 µg/mL [5, 21]: 20.1% | IC50 ([5]; MTT): > 16 µg/mL | inhibition at 16 µg/mL ([6]; RPMI8226, 16 μg/mL compound, 72 h, read-out: IR (inhibition rate)): 97.6% | IC50 ([6]; RPMI8226, 72 h, MTT): 6.44 µg/mL (≈ 12 µM) | inhibition at 16 µg/mL [7]: 24.3% | IC50 [7]: > 16 µg/mL | inhibition at 16 µg/mL ([8]; PANC-1, 16 μg/mL compound, 72 h, read-out: IR (inhibition rate)): 34.7% | IC50 ([8]; PANC-1, 72 h, MTT): > 16 µg/mL | inhibition at 16 µg/mL ([9]; Becap37, 16 μg/mL compound, 72 h, read-out: IR (inhibition rate)): 28.6% | IC50 ([9]; Becap37, 72 h, MTT): > 16 µg/mL | IC50 ([10]; Homo sapiens, MG 63, 72 h, MTT): > 16 µg/mL | IR (inhibition rate) ([10]; MG 63, 16 μg/mL compound, 72 h): 20.9% | inhibition at 16 µg/mL ([11]; Hep G2, 16 μg/mL compound, 72 h, read-out: IR (inhibition rate)): 28.4% | IC50 ([11]; Hep G2, 72 h, MTT): > 16 µg/mL | inhibition at 16 µg/mL [12, 21]: 27% | IC50 ([12]; MTT): > 16 µg/mL | inhibition at 16 µg/mL [13, 21]: 29.8% | IC50 ([13]; MTT): > 16 µg/mL | inhibition at 16 µg/mL [14, 21]: 63.1% | IC50 ([14]; MTT): 14.2 µg/mL (≈ 26.3 µM) | inhibition at 16 µg/mL ([15]; CaES-17, 16 μg/mL compound, 72 h, read-out: IR (inhibition rate)): 39.9% | IC50 ([15]; CaES-17, 72 h, MTT): > 16 µg/mL | inhibition at 16 µg/mL [16, 21]: 35.8% | IC50 ([16]; MTT): > 16 µg/mL | inhibition at 16 µg/mL ([17]; Hep-2, 16 μg/mL compound, 72 h, read-out: IR (inhibition rate)): 19.6% | IC50 ([17]; Hep-2, 72 h, MTT): > 16 µg/mL | inhibition at 16 µg/mL ([18]; MGC803, 16 μg/mL compound, 72 h, read-out: IR (inhibition rate)): 46.3% | IC50 ([18]; MGC803, 72 h, MTT): 16 µg/mL (≈ 29.7 µM) | inhibition at 16 µg/mL ([19]; PC-3, 16 μg/mL compound, 72 h, read-out: IR (inhibition rate)): 45.1% | IC50 ([19]; PC-3, 72 h, MTT): 17.4 µg/mL (≈ 32.4 µM) | inhibition at 16 µg/mL ([20]; SK-OV-3, 16 μg/mL compound, 72 h, read-out: IR (inhibition rate)): 53.5% | IC50 ([20]; SK-OV-3, 72 h, MTT): 14.6 µg/mL (≈ 27.2 µM)

CC1(C)CC[C@]2(NC(=O)/C=C/c3ccco3)CC[C@]3(C)C(=CC[C@@H]4[C@@]5(C)CC[C@H](O)C(C)(C)[C@@H]5CC[C@]43C)[C@@H]2C1 [BS-OA-100]
inhibition at 16 µg/mL [1]: 38.8% | IC50 [1]: > 16 µg/mL | inhibition at 16 µg/mL [7]: 15.6% | IC50 [7]: > 16 µg/mL

Cc1ccc(C(=O)N[C@]23CCC(C)(C)C[C@H]2C2=CC[C@@H]4[C@@]5(C)CC[C@H](O)C(C)(C)[C@@H]5CC[C@@]4(C)[C@]2(C)CC3)cc1 [BS-OA-102]
inhibition at 16 µg/mL [1]: 57% | IC50 [1]: > 16 µg/mL | inhibition at 16 µg/mL [7]: 13.7% | IC50 [7]: > 16 µg/mL
